Values of other authors, collected in patent US20060057232A1, “Method of altering age perception” (priority 2004, published 2006).

Tested on: sensitivity of observers to light
Settings: (26)

In the case of `c1ccncc1` [pyridine], the “effect on sensitivity of observers to light” value is listed as “increase sensitivity of observers to light”.
